77 compounds from the Kinase Knowledgebase extract (Sharma et al. 2016) can be followed below.

The assay has as its target PIK3CB;PIK3CG;PIK3CD;PIK3CA (human) (UniProt P48736). Nature of the assay: Enzyme Assay.

Broadly, the IC50 is the concentration that gives 50% inhibition.

For the compound `O=C(c1nn([C@@H]2CCCN(CCn3ccnc3)C2)c2c1CS(=O)(=O)c1ccccc1-2)N1CCOCC1`, the IC50 amounted to 444 nM. In the case of `CN(C)CCCn1nc(C(=O)N2CCOCC2)c2c1-c1ccccc1S(=O)(=O)C2` it was 3110 nM; in that of `Cc1cccc2c1S(=O)(=O)Cc1c(C(=O)N3CCOCC3)nn([C@H]3CCCN(CCN4CCOCC4)C3)c1-2`, 49 nM; in that of `CS(=O)(=O)C1CCC(n2nc(C(=O)N3CCOCC3)c3c2-c2ccccc2S(=O)(=O)C3)CC1` (configuration not stated), 2100 nM. In the case of `O=C(c1nn(-c2ccc(CN3CCCC(F)(F)C3)cc2)c2c1CS(=O)(=O)c1ccccc1-2)N1CCOCC1` it was 355 nM; in that of `O=C(c1nn(C2CCCC2)c2c1CS(=O)(=O)c1ccccc1-2)N1CCOCC1`, 205 nM; in that of `O=C(c1nn([C@H]2CCN(C3CCOCC3)C2)c2c1CS(=O)(=O)c1ccccc1-2)N1CCOCC1`, 1440 nM. In the case of `O=C(c1nn(C2CCCN(CCN3CCC(F)CC3)C2)c2c1CS(=O)(=O)c1ccccc1-2)N1CCOCC1` (configuration not stated) it was 34 nM; in that of `COCCCN1CCC(n2nc(C(=O)N3CCOCC3)c3c2-c2ccccc2S(=O)(=O)C3)C1` (configuration not stated), 923 nM; in that of `O=C(c1nn([C@@H]2CCCN(CCC3CCOCC3)C2)c2c1CS(=O)(=O)c1ncccc1-2)N1CCOCC1`, 99 nM.

`CCCCNc1ccc2c(c1)S(=O)(=O)Cc1c(C(=O)N3CCOCC3)nn(-c3ccccc3)c1-2` registered an IC50 of 9790 nM. In the case of `O=C(c1nn(-c2ccc(Br)cc2)c2c1CS(=O)(=O)c1ccccc1-2)N1CCOCC1` it was 1120 nM. In the case of `COC1CCN(Cc2ccc(-n3nc(C(=O)N4CCOCC4)c4c3-c3ccccc3S(=O)(=O)C4)cc2)CC1` it was 249 nM; in that of `O=C(c1nn(-c2cccc(OCCn3ccnc3)c2)c2c1CS(=O)(=O)c1ccccc1-2)N1CCOCC1`, 179 nM; in that of `O=C(c1nn(C2CCCN(CCN3CC[C@@H](F)C3)C2)c2c1CS(=O)(=O)c1ccccc1-2)N1CCOCC1` (some centres not stated), 34 nM. In the case of `O=C(c1nn(C2CCOCC2)c2c1CS(=O)(=O)c1ccccc1-2)N1CCOCC1` it was 223 nM.

As to `CC1(C)CCCC(n2nc(C(=O)N3CCOCC3)c3c2-c2ccccc2S(=O)(=O)C3)C1` (configuration not stated), the IC50 is 498 nM.

Compound `NCCCC1c2c(C(=O)N3CCOCC3)nn(-c3ccccc3)c2-c2ccccc2S1(=O)=O` (configuration not stated) displayed an IC50 of 4520 nM. As to `CN1CCCC(N2CCC[C@H](n3nc(C(=O)N4CCOCC4)c4c3-c3ccccc3S(=O)(=O)C4)C2)C1` (some centres not stated), the IC50 was found to be 18 nM.

As to `O=C(c1nn(C2CCCN(CCn3cccn3)C2)c2c1CS(=O)(=O)c1c(F)cccc1-2)N1CCOCC1` (configuration not stated), the IC50 worked out at 80 nM. Regarding `CC(C)(CN1CCOCC1)c1ccc(-n2nc(C(=O)N3CCOCC3)c3c2-c2ccccc2S(=O)(=O)C3)cc1`, the IC50 turned out to be 341 nM. `O=C(c1nn(C2CCCN(CCC3CCOCC3)C2)c2c1CS(=O)(=O)c1ncccc1-2)N1CCOCC1` (configuration not stated) registered an IC50 of 61 nM. In the case of `O=C(c1nn(-c2cccc(-c3ncon3)c2)c2c1CS(=O)(=O)c1ccccc1-2)N1CCOCC1` it was 6690 nM; in that of `CN(C)Cc1noc(-c2cccc(-n3nc(C(=O)N4CCOCC4)c4c3-c3ccccc3S(=O)(=O)C4)c2)n1`, 2980 nM. In the case of `CC(=O)N1CCC(Cn2nc(C(=O)N3CCOCC3)c3c2-c2ccccc2S(=O)(=O)C3)CC1` it was 2820 nM. On to `CCOc1ccc2c(c1)S(=O)(=O)Cc1c(C(=O)N3CCOCC3)nn(-c3ccc(CN4CCOCC4)cc3)c1-2`, for which the IC50 worked out at 250 nM. The compound `O=C(c1nn([C@H]2CCCN(CCN3CCOCC3)C2)c2c1CS(=O)(=O)c1ccccc1-2)N1CCOCC1` came in with an IC50 of 16 nM. Turning to `O=C(c1nn(-c2cccc(CN3CCOCC3)c2)c2c1CS(=O)(=O)c1ccccc1-2)N1CCOCC1`, the IC50 amounted to 1300 nM. In the case of `O=C(c1nn(-c2ccc(CN3CCOCC3)nc2)c2c1CS(=O)(=O)c1ccccc1-2)N1CCOCC1` it was 614 nM. Regarding `Cc1ccncc1-n1nc(C(=O)N2CCOCC2)c2c1-c1ccccc1S(=O)(=O)C2`, the IC50 is 4040 nM. In the case of `O=C(c1ccc(-n2nc(C(=O)N3CCOCC3)c3c2-c2ccccc2S(=O)(=O)C3)cc1)N1CCCCC1` it was 238 nM; in that of `O=C(c1nn([C@H]2CCCN(CC3CCOCC3)C2)c2c1CS(=O)(=O)c1ccccc1-2)N1CCOCC1`, 25 nM. Compound `O=C(c1nn([C@H]2CCCN(CCN3CCC(O)CC3)C2)c2c1CS(=O)(=O)c1ccccc1-2)N1CCOCC1` gave an IC50 of 18 nM.

`COc1ccc2c(c1)S(=O)(=O)Cc1c(C(=O)N3CCOCC3)nn([C@H]3CCCN(CCN4CCC(F)CC4)C3)c1-2` yielded an IC50 of 19 nM. In the case of `O=C(c1cccc(-n2nc(C(=O)N3CCOCC3)c3c2-c2ccccc2S(=O)(=O)C3)c1)N1CCCC(O)C1` (configuration not stated), the IC50 came out at 348 nM.

`O=C(c1nn([C@H]2CCCN(CCN3CCOCC3)C2)c2c1CS(=O)(=O)c1c(Cl)cccc1-2)N1CCOCC1` registered an IC50 of 30 nM. In the case of `COCCN(CCOC)CCN1CCC[C@H](n2nc(C(=O)N3CCOCC3)c3c2-c2ccccc2S(=O)(=O)C3)C1` it was 113 nM.

Turning to `O=C(c1nn(-c2cccc(CO)c2)c2c1CS(=O)(=O)c1ccccc1-2)N1CCOCC1`, the IC50 was 2250 nM. In the case of `O=C(c1nn(C2CCN(CCN3CC[C@H](F)C3)C2)c2c1CS(=O)(=O)c1ccccc1-2)N1CCOCC1` (some centres not stated) it was 192 nM.

For the compound `N#Cc1cccc(-n2nc(C(=O)N3CCOCC3)c3c2-c2ccccc2S(=O)(=O)C3)c1`, the IC50 was determined as 376 nM. In the case of `O=C(c1nn(-c2ccc(CN3CC(F)C3)cc2)c2c1CS(=O)(=O)c1ccccc1-2)N1CCOCC1` it was 229 nM.

Regarding `O=C(c1nn([C@H]2CCCNC2)c2c1CS(=O)(=O)c1ccccc1-2)N1CCOCC1`, the IC50 worked out at 1060 nM.

As to `O=C(c1nn(-c2ccc(CO)cc2)c2c1CS(=O)(=O)c1ccccc1-2)N1CCOCC1`, the IC50 came out at 1060 nM. In the case of `O=C(c1nn(CCN2CCOCC2)c2c1CS(=O)(=O)c1ccccc1-2)N1CCOCC1` it was 795 nM.

`Cc1nc(CN2CCCC(n3nc(C(=O)N4CCOCC4)c4c3-c3ccccc3S(=O)(=O)C4)C2)no1` (configuration not stated): the IC50 worked out at 134 nM. In the case of `Cc1ccccc1-c1ccc(-n2nc(C(=O)N3CCOCC3)c3c2-c2ccccc2S(=O)(=O)C3)cc1` it was 6470 nM; in that of `O=C(c1nn(-c2ccccc2)c2c1CS(=O)(=O)c1ccccc1-2)N1CCCOCC1`, 9070 nM. Consider `O=C(c1nn(C2CCCC(C(=O)N3CCOCC3)C2)c2c1CS(=O)(=O)c1ccccc1-2)N1CCOCC1` (configuration not stated), for which the IC50 stood at 420 nM. In the case of `COCCN1CCCC(n2nc(C(=O)N3CCOCC3)c3c2-c2ccccc2S(=O)(=O)C3)C1` (configuration not stated) it was 188 nM; in that of `CC(=O)OCCN1CCC(n2nc(C(=O)N3CCOCC3)c3c2-c2ccccc2S(=O)(=O)C3)C1` (configuration not stated), 871 nM. In the case of `O=C(c1nn(C2CCCN(CCC3CCCCC3)C2)c2c1CS(=O)(=O)c1ccccc1-2)N1CCOCC1` (configuration not stated) it was 155 nM; in that of `COCC(=O)N1CCC[C@H](n2nc(C(=O)N3CCOCC3)c3c2-c2ccccc2S(=O)(=O)C3)C1`, 261 nM.

Take `NC(=O)c1cccc2c1S(=O)(=O)Cc1c(C(=O)N3CCOCC3)nn(-c3ccccc3)c1-2`: the IC50 is 7900 nM. In the case of `CCc1nc(-c2cccc(-n3nc(C(=O)N4CCOCC4)c4c3-c3ccccc3S(=O)(=O)C4)c2)no1` it was 2590 nM.

In turn, `O=C(c1nn([C@H]2CCCN(CCn3ccnc3)C2)c2c1CS(=O)(=O)c1ccccc1-2)N1CCOCC1` showed an IC50 of 5600 nM. In the case of `O=C(c1nn(C2CCN(C3CCOCC3)C2)c2c1CS(=O)(=O)c1ccccc1-2)N1CCOCC1` (configuration not stated), the IC50 was 77 nM. `Cn1cc(-c2cccc(-n3nc(C(=O)N4CCOCC4)c4c3-c3ccccc3S(=O)(=O)C4)c2)cn1`: the IC50 was 184 nM.

With `O=C(c1nn(-c2ccccc2)c2c1CS(=O)(=O)c1ccccc1-2)N1CCOCC1`, the IC50 worked out at 244 nM.

With `O=C(c1nn(-c2ccc3[nH]ncc3c2)c2c1CS(=O)(=O)c1ccccc1-2)N1CCOCC1`, the IC50 amounted to 1640 nM. In the case of `CC(=O)NCCN1CCC[C@H](n2nc(C(=O)N3CCOCC3)c3c2-c2ccccc2S(=O)(=O)C3)C1` it was 105 nM. Take `O=C(c1ccc(-n2nc(C(=O)N3CCOCC3)c3c2-c2ccccc2S(=O)(=O)C3)cc1)N1CCOCC1`: the IC50 amounted to 274 nM.

`O=C(c1nn([C@H]2CCCN(C3CCCOC3)C2)c2c1CS(=O)(=O)c1c(F)cccc1-2)N1CCOCC1` (some centres not stated) came in with an IC50 of 25 nM. In turn, `CC1CN(Cc2ccc(-n3nc(C(=O)N4CCOCC4)c4c3-c3ccccc3S(=O)(=O)C4)cc2)CCO1` (configuration not stated) registered an IC50 of 105 nM. Compound `CC(C)(c1ccc(-n2nc(C(=O)N3CCOCC3)c3c2-c2ccccc2S(=O)(=O)C3)cc1)N1CCOCC1` had an IC50 of 584 nM. Compound `CN(C)CCN1CCCC(n2nc(C(=O)N3CCOCC3)c3c2-c2ccccc2S(=O)(=O)C3)C1` (configuration not stated) displayed an IC50 of 72 nM.

In turn, `O=C(c1nn([C@@H]2CCCN(CCN3CCOCC3)C2)c2c1CS(=O)(=O)c1ccccc1-2)N1CCOCC1` yielded an IC50 of 1280 nM. In the case of `COCCN1CCC(Cn2nc(C(=O)N3CCOCC3)c3c2-c2ccccc2S(=O)(=O)C3)CC1` it was 681 nM; in that of `CN1c2c(C(=O)N3CCOCC3)nn(-c3ccccc3)c2-c2ccccc2S1(=O)=O`, 3460 nM. `NCCN1CCC[C@H](n2nc(C(=O)N3CCOCC3)c3c2-c2ccccc2S(=O)(=O)C3)C1` had an IC50 of 73 nM. In the case of `O=C(c1nn(CCc2ccccn2)c2c1CS(=O)(=O)c1ccccc1-2)N1CCOCC1` it was 1920 nM. In the case of `CC1(C)CN(Cc2ccc(-n3nc(C(=O)N4CCOCC4)c4c3-c3ccccc3S(=O)(=O)C4)cc2)CCO1` it was 120 nM. `COc1cccc(Cn2nc(C(=O)N3CCOCC3)c3c2-c2ccccc2S(=O)(=O)C3)c1` gave an IC50 of 1170 nM. In the case of `COCN1c2c(C(=O)N3CCOCC3)nn(-c3ccccc3)c2-c2ccccc2S1(=O)=O` it was 11700 nM. In the case of `O=C(c1nn(-c2ccc(CN3CCCC3)cc2)c2c1CS(=O)(=O)c1ccccc1-2)N1CCOCC1` it was 285 nM; in that of `CC1CN(Cc2ccc(-n3nc(C(=O)N4CCOCC4)c4c3-c3ccccc3S(=O)(=O)C4)cc2)CC(C)O1` (configuration not stated), 57 nM. In the case of `O=C(c1nn([C@H]2CCCN(CCN3CCOCC3)C2)c2c1CS(=O)(=O)c1cc(F)ccc1-2)N1CCOCC1` it was 14 nM; in that of `COCCCN1CCCC(n2nc(C(=O)N3CCOCC3)c3c2-c2ccccc2S(=O)(=O)C3)CC1` (configuration not stated), 438 nM.
